From patent US9056851B2, “Thiolactone antibiotics” (priority 2011, dated 2015)
Values after ≈ are worked out from the molar mass of the structure shown.

How the values were obtained:
M. smegmatis MC^2155 = assay: MIC against M. smegmatis; assay type: cell-based; details: Mycolicibacterium smegmatis, MC^2155; MIC90; read-out: MIC (μg/ml) M. smeg
M. tuberculosis H37Rv = assay: MIC against M. tuberculosis; assay type: cell-based; details: Mycobacterium tuberculosis; MIC99; H37Rv; read-out: MIC (μg/ml) M. tb (MIC99)
B. thialandensis Bt38 = assay: MIC against B. thialandensis; assay type: cell-based; details: read-out: MIC (μg/ml) B. thialandensis Bt.38 (efflux^−)
S. aureus BAA1762 = assay: MIC against S. aureus BAA1762 (MRSA); assay type: cell-based; details: Staphylococcus aureus; MIC90; read-out: MIC (μg/ml) Staph. aureus BAA1762 MRSA
F. tularensis LVS = assay: microbe, parasite or virus in culture; assay type: cell-based; details: Francisella tularensis, read-out: MIC (μg/ml) F. tu
Y. pestis A1122 = assay: microbe, parasite or virus in culture; assay type: cell-based; details: Yersinia pestis, A1122, read-out: MIC (μg/ml) Y. pestis
S. aureus RN4220 = assay: MIC against S. aureus RN4220 (MSSA); assay type: cell-based; details: Staphylococcus aureus, MIC90, read-out: MIC (μg/ml) Staph. aureus RN4220 MSSA
wild-type apo-KasA = wild-type apo-KasA (Mycobacterium tuberculosis, UniProt P9WQD9); assay: biochemical; assay type: binding
B. pseudomallei Bp82z66 = assay: microbe, parasite or virus in culture; assay type: cell-based; details: Burkholderia pseudomallei, BP82Z66, read-out: MIC (μg/ml) B. pseudomallei

Sequence of wild-type apo-KasA (P9WQD9 whole entry): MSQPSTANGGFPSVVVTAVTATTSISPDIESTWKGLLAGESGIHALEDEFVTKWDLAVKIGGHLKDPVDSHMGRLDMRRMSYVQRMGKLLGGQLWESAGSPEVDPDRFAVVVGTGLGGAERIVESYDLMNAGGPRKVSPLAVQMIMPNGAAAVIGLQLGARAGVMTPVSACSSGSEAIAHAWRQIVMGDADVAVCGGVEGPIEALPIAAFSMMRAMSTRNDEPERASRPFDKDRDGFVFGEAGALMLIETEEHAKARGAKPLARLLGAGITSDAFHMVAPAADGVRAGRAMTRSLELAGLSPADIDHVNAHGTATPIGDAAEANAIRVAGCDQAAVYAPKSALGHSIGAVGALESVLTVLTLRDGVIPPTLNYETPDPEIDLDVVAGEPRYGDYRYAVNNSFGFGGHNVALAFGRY

Structure (SMILES) | MIC (M. smegmatis MC^2155) | MIC99 (M. tuberculosis H37Rv) | MIC (B. thialandensis Bt38) | MIC (S. aureus BAA1762) | MIC (F. tularensis LVS) | MIC (Y. pestis A1122) | MIC (S. aureus RN4220) | Ki (wild-type apo-KasA) | Kd (wild-type apo-KasA; Kd (μM) apo-KasA, Table 1, wild-type apo-KasA, fluorescence spectroscopy) | MIC (B. pseudomallei Bp82z66)
C=C/C(C)=C/[C@@]1(C)SC(=O)C=C1O [TLM2, 5R-(+)-3-Demethylthiolactomycin] | > 100 µg/mL | > 100 µg/mL | 148 µg/mL (≈ 756 µM) | 100 µg/mL (≈ 509 µM) | 124 µg/mL (≈ 631 µM) | 250 µg/mL (≈ 1270 µM) | 150 µg/mL (≈ 764 µM) | – | – | –
C=C/C(C)=C/[C@@]1(C)SC(=O)C(CC)=C1O [TLM3, 5R-(+)-3-Ethylthiolactomycin] | > 100 µg/mL | < 7.8 µg/mL | 148 µg/mL (≈ 661 µM) | 125 µg/mL (≈ 557 µM) | 6.9 µg/mL (≈ 30.8 µM) | 145 µg/mL (≈ 645 µM) | 150 µg/mL (≈ 669 µM) | – | – | –
C=C/C(C)=C/[C@@]1(C)SC(=O)C(CCC)=C1O [TLM4, 5R-(+)-3-Propylthiolactomycin] | > 100 µg/mL | 12.5 µg/mL (≈ 52.4 µM) | 250 µg/mL (≈ 1050 µM) | > 200 µg/mL | 25.8 µg/mL (≈ 108 µM) | 250 µg/mL (≈ 1050 µM) | > 200 µg/mL | – | – | –
C=C/C(C)=C/[C@@]1(C)SC(=O)C(CCc2ccc(C)cc2)=C1O [TLM5] | > 100 µg/mL | 25 µg/mL (≈ 79.5 µM) | 250 µg/mL (≈ 795 µM) | > 100 µg/mL | 3.45 µg/mL (≈ 11 µM) | 250 µg/mL (≈ 795 µM) | > 64 µg/mL | – | – | –
C=C/C(C)=C/[C@@]1(C)SC(=O)C(CCCCc2ccc(F)cc2)=C1O [TLM6] | > 100 µg/mL | 25 µg/mL (≈ 72.2 µM) | 250 µg/mL (≈ 722 µM) | 75 µg/mL (≈ 216 µM) | 3.15 µg/mL (≈ 9.1 µM) | 250 µg/mL (≈ 722 µM) | > 64 µg/mL | – | – | –
C=C/C(C)=C/[C@@]1(C)SC(=O)C(CCCCc2ccc(Cl)cc2)=C1O [TLM7] | > 100 µg/mL | 25 µg/mL (≈ 68.9 µM) | 81 µg/mL (≈ 223 µM) | 50 µg/mL (≈ 138 µM) | 1.73 µg/mL (≈ 4.77 µM) | 250 µg/mL (≈ 689 µM) | 64 µg/mL (≈ 176 µM) | – | – | –
C=C/C(C)=C/[C@@]1(C)SC(=O)C(CCCCc2ccc(Br)cc2)=C1O [TLM8] | > 100 µg/mL | 25 µg/mL (≈ 61.4 µM) | 126 µg/mL (≈ 309 µM) | 50 µg/mL (≈ 123 µM) | 2.17 µg/mL (≈ 5.33 µM) | 250 µg/mL (≈ 614 µM) | 32 µg/mL (≈ 78.6 µM) | – | – | –
C=C/C(C)=C/[C@@]1(C)SC(=O)C(CCCCc2ccc(-c3ccccc3)cc2)=C1O [TLM9] | – | 50 µg/mL (≈ 124 µM) | 145 µg/mL (≈ 359 µM) | 25 µg/mL (≈ 61.8 µM) | 1.97 µg/mL (≈ 4.88 µM) | 250 µg/mL (≈ 618 µM) | 16 µg/mL (≈ 39.5 µM) | – | – | –
C=C/C(C)=C/[C@@]1(C)SC(=O)C(CCCN=[N+]=[N-])=C1O [TLM10] | – | 12.5 µg/mL (≈ 44.7 µM) | 250 µg/mL (≈ 895 µM) | > 100 µg/mL | 23.5 µg/mL (≈ 84.1 µM) | 250 µg/mL (≈ 895 µM) | > 64 µg/mL | 233 ± 7 µM | 233 ± 7 µM | –
C=C/C(C)=C/[C@@]1(C)SC(=O)C=C1OCC(=O)NCCn1cc(CNC(=O)[C@H](O)C(C)(C)CO)nn1 [TLM26] | – | > 100 µg/mL | – | > 64 µg/mL | 159 µg/mL (≈ 313 µM) | – | > 64 µg/mL | – | – | 150 µg/mL (≈ 295 µM)
C=C/C(C)=C/[C@@]1(C)SC(=O)C(CCc2ccc(Cl)cc2)=C1O [TLM31] | – | 25 µg/mL (≈ 74.7 µM) | 250 µg/mL (≈ 747 µM) | 100 µg/mL (≈ 299 µM) | 3.1 µg/mL (≈ 9.24 µM) | 250 µg/mL (≈ 747 µM) | 64 µg/mL (≈ 191 µM) | – | – | –
C=C/C(C)=C/[C@@]1(C)SC(=O)C(CCCCN=[N+]=[N-])=C1O [TLM32] | – | 50 µg/mL (≈ 170 µM) | 250 µg/mL (≈ 852 µM) | > 100 µg/mL | 15.3 µg/mL (≈ 52.3 µM) | 250 µg/mL (≈ 852 µM) | > 64 µg/mL | – | – | –
C=C/C(C)=C/[C@@]1(C)SC(=O)C(CCCCn2cc(CNC(=O)[C@H](O)C(C)(C)CO)nn2)=C1O [TLM33] | – | > 100 µg/mL | 250 µg/mL (≈ 522 µM) | > 100 µg/mL | 250 µg/mL (≈ 522 µM) | 250 µg/mL (≈ 522 µM) | > 64 µg/mL | – | – | –
